Test results published in patent publication US11254686B1 (Corvus Pharmaceuticals, Inc., priority 2017, dated 2022).

How the values were obtained:
adenosine A2B receptor = adenosine A2B receptor (Homo sapiens (Human), UniProt P29275); assay: Adenosine receptor activity assay (Table 1), A2B activity; type: biochemical; settings: for Ratio: A2A activity to A2B activity (A2A/A2B); for IC50: read-out: Ave A2B cAMP IC50
adenosine A2A receptor = adenosine A2A receptor (Homo sapiens (Human), UniProt P29274); assay: Adenosine receptor activity assay (Table 1), A2A activity; type: biochemical; settings: read-out: Ave A2A cAMP IC50
adenosine A1 receptor = adenosine A1 receptor (Homo sapiens (Human), UniProt P30542); assay: A1 cAMP IC50 assay (Table 1); type: biochemical
adenosine A3 receptor = adenosine A3 receptor (Homo sapiens (Human), UniProt P0DMS8); assay: A3 cAMP IC50 assay (Table 1); type: biochemical
[1] = Hepatocyte (Hep) intrinsic clearance, rat; type: in vitro ADME; settings: hepatocytes
[2] = Hepatocyte (Hep) intrinsic clearance, human; type: in vitro ADME; settings: hepatocytes

adenosine A2A receptor, sequence (P29274 whole entry): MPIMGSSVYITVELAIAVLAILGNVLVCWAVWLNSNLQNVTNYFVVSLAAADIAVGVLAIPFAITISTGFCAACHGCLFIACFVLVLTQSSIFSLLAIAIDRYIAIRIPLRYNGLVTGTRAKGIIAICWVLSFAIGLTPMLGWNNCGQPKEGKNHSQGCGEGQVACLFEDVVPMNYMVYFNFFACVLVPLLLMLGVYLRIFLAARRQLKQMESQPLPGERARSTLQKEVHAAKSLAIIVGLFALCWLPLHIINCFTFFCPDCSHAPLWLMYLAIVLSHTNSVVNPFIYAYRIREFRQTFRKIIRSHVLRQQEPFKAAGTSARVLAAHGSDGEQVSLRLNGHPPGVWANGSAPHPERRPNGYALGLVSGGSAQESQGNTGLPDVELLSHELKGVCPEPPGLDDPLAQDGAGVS
adenosine A3 receptor, sequence (P0DMS8 whole entry): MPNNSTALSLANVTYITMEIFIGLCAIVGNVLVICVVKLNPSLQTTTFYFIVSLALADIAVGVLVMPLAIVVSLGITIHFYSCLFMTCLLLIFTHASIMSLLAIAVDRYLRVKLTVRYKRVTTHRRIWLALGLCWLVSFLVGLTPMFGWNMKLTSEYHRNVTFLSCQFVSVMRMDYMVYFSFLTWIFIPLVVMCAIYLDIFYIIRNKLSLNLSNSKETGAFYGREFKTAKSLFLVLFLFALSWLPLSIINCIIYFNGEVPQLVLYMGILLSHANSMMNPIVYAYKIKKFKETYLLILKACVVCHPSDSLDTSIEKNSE
adenosine A2B receptor, sequence (P29275 whole entry): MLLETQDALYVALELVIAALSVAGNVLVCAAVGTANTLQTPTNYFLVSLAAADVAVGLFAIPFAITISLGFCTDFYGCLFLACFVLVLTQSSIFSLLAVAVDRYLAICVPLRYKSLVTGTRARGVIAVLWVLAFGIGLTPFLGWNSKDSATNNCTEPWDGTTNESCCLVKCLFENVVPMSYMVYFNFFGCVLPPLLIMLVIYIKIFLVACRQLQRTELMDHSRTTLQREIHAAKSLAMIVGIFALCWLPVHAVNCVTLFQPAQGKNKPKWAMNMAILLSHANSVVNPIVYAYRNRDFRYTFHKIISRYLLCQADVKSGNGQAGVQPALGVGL
adenosine A1 receptor, sequence (P30542 whole entry): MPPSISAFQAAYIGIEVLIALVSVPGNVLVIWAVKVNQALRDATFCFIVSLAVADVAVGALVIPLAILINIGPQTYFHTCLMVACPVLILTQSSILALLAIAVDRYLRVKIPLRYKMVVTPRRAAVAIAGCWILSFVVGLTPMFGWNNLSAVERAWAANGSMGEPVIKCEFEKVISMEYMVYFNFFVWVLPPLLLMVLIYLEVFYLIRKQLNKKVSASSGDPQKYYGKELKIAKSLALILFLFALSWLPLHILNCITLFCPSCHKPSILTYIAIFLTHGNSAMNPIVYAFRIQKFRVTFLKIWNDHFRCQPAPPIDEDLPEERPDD

Ratio (adenosine A2B receptor) | IC50 (adenosine A2B receptor) [µM] | IC50 (adenosine A2A receptor) [µM] | IC50 (adenosine A1 receptor) [µM] | IC50 (adenosine A3 receptor) [µM] | hepatocyte CLint [1] [µL/min/1e6 cells] | hepatocyte CLint [2] [µL/min/1e6 cells] | Compound
32.43 | < 0.01 | 0.05 to 0.1 | > 0.5 | > 0.5 |  |  | C[C@H](Nc1nc(C(=O)N2CCC2)c2sccc2n1)c1cccc(F)c1 [Example Z128, (S)-Azetidin-1-yl(2-((1-(3-fluorophenyl)ethyl)amino)thieno[3,2-d]pyrimidin-4-yl)methanone]
46.65 | < 0.01 | 0.1 to 0.5 | > 0.5 | 0.05 to 0.1 |  |  | CNc1cc2nc(N[C@@H](C)c3cccnc3)nc(C(=O)N3CCC3)c2s1 [Example Z153, (S)-Azetidin-1-yl(6-(methylamino)-2-((1-(pyridin-3-yl)ethyl)amino)thieno[3,2-d]pyrimidin-4-yl)methanone]
9.39 |  |  |  |  | 22.6 | 20.6 | C[C@H](Nc1nc(C(=O)NC2CC(O)C2)c2sccc2n1)c1ccccn1 (stereo partly drawn) [Example Z158, N-((1s,3R)-3-Hydroxycyclobutyl)-2-(((S)-1-(pyridin-2-yl)ethyl)amino)thieno[3,2-d]pyrimidine-4-carboxamide]
 | < 0.01 | 0.01 to 0.05 | 0.1 to 0.5 | > 0.5 |  |  | C[C@H](Nc1nc(C(=O)N[C@H]2C[C@@H](O)C2)c2sccc2n1)c1ccccn1 [Example Z158, N-((1s,3R)-3-Hydroxycyclobutyl)-2-(((S)-1-(pyridin-2-yl)ethyl)amino)thieno[3,2-d]pyrimidine-4-carboxamide]
22.65 | 0.01 to 0.05 | > 0.5 | > 0.5 | 0.05 to 0.1 |  |  | CNc1cc2nc(NCc3ccccn3)nc(C(=O)N3CCCC3)c2s1 [Example Z160, (6-(Methylamino)-2-((pyridin-2-ylmethyl)amino)thieno[3,2-d]pyrimidin-4-yl)(pyrrolidin-1-yl)methanone]
29.83 | < 0.01 | 0.1 to 0.5 | > 0.5 | 0.05 to 0.1 |  |  | CNc1cc2nc(N[C@@H](C)c3cccnc3)nc(C(=O)N3CC[C@@H](F)C3)c2s1 [Example Z161, ((R)-3-Fluoropyrrolidin-1-yl)(6-(methylamino)-2-(((S)-1-(pyridin-3-yl)ethyl)amino)thieno[3,2-d]pyrimidin-4-yl)methanone]
5.97 | 0.01 to 0.05 | 0.1 to 0.5 | > 0.5 | > 0.5 |  |  | C[C@H](Nc1nc(C(=O)NC[C@@H](C)O)c2sccc2n1)c1ccccn1 [Example Z162, N—((R)-2-Hydroxypropyl)-2-(((S′)-1-(pyridin-2-yl)ethyl)amino)thieno[3,2-d]pyrimidine-4-carboxamide]
16.55 | 0.01 to 0.05 | 0.1 to 0.5 | > 0.5 | 0.05 to 0.1 |  |  | CC(C)(C)OC(=O)N[C@@H]1CCN(C(=O)c2nc(NCc3cc(F)cc(F)c3)nc3ccsc23)C1 [Example Z167, tert-Butyl (R)-(1-(2-((3,5-difluorobenzyl)amino)thieno[3,2-d]pyrimidine-4-carbonyl)pyrrolidin-3-yl)carbamate]
54.37 | 0.05 to 0.1 | > 0.5 | > 0.5 | > 0.5 |  |  | CNc1cc2nc(N[C@@H](C)c3cccnc3)nc(C(=O)N3CC[C@@H](O)C3)c2s1 [Example Z172, ((R)-3-Hydroxypyrrolidin-1-yl)(6-(methylamino)-2-(((S)-1-(pyridin-3-yl)ethyl)amino)thieno[3,2-d]pyrimidin-4-yl)methanone]
22.59 | < 0.01 | 0.1 to 0.5 | > 0.5 | 0.05 to 0.1 |  |  | CNc1cc2nc(N[C@@H](C)c3ccccn3)nc(C(=O)N3CC[C@@H](F)C3)c2s1 [Example Z175, ((R)-3-fluoropyrrolidin-1-yl)(6-(methylamino)-2-(((S)-1-(pyridin-2-yl)ethyl)amino)thieno[3,2-d]pyrimidin-4-yl)methanone]
7.01 | 0.01 to 0.05 | 0.05 to 0.1 | 0.05 to 0.1 | > 0.5 |  |  | O=C(NC1CCC1)c1nc(NCc2cc(F)cc(F)c2)nc2ccsc12 [Example Z177, N-Cyclobutyl-2-((3,5-difluorobenzyl)amino)thieno[3,2-d]pyrimidine-4-carboxamide]
1.80 | 0.01 to 0.05 | 0.01 to 0.05 | 0.1 to 0.5 | 0.1 to 0.5 |  |  | C[C@H](Nc1nc(C(=O)NC2CCCC2)c2sccc2n1)c1ccccn1 [Example Z180, (S)—N-Cyclopentyl-2-((1-(pyridin-2-yl)ethyl)amino)thieno[3,2-d]pyrimidine-4-carboxamide]
36.15 | < 0.01 | 0.1 to 0.5 | > 0.5 | 0.05 to 0.1 |  |  | C[C@H](Nc1nc(C(=O)N2CCC2)c2sc(N)cc2n1)c1ccccn1 [Example Z189, (S)-(6-Amino-2-((1-(pyridin-2-yl)ethyl)amino)thieno[3,2-d]pyrimidin-4-yl)(azetidin-1-yl)methanone]

Continued, molecule first:

Compound | Ratio (adenosine A2B receptor) | IC50 (adenosine A2B receptor) [µM] | IC50 (adenosine A2A receptor) [µM] | IC50 (adenosine A1 receptor) [µM] | IC50 (adenosine A3 receptor) [µM] | hepatocyte CLint [1] [µL/min/1e6 cells] | hepatocyte CLint [2] [µL/min/1e6 cells]
C[C@H](Nc1nc(C(=O)N2CC[C@@H](O)C2)c2sccc2n1)c1cccc(F)c1 [Example Z132, (2-(((S)-1-(3-Fluorophenyl)ethyl)amino)thieno[3,2-d]pyrimidin-4-yl)((R)-3-hydroxypyrrolidin-1-yl)methanone] | 20.13 | < 0.01 | 0.1 to 0.5 | > 0.5 | > 0.5 |  | 
C[C@H](Nc1nc(C(=O)N[C@H]2CCN(C(=O)OC(C)(C)C)C2)c2sccc2n1)c1ccccn1 [Example Z143, tert-Butyl (S)-3-(2-(((S)-1-(pyridin-2-yl)ethyl)amino)thieno[3,2-d]pyrimidine-4-carboxamido)pyrrolidine-1-carboxylate] | 0.44 | 0.05 to 0.1 | 0.01 to 0.05 | > 0.5 | 0.01 to 0.05 |  | 
COCCNC(=O)c1nc(N[C@@H](C)c2ccccn2)nc2ccsc12 [Example Z144, (S)—N-(2-Methoxyethyl)-2-((1-(pyridin-2-yl)ethyl)amino)thieno[3,2-d]pyrimidine-4-carboxamide] | 1.52 | 0.01 to 0.05 | 0.05 to 0.1 | > 0.5 | 0.05 to 0.1 |  | 
C[C@H](Nc1nc(C(=O)NCCO)c2sccc2n1)c1cccnc1 [Example Z145, (S)—N-(2-Hydroxyethyl)-2-((1-(pyridin-3-yl)ethyl)amino)thieno[3,2-d]pyrimidine-4-carboxamide] |  | 0.01 to 0.05 | 0.1 to 0.5 |  |  | 8.46 | 1.92
C[C@H](Nc1nc(C(=O)N[C@H]2C[C@H](O)C2)c2sccc2n1)c1ccccn1 [Example Z159, N-((1r,3S)-3-Hydroxycyclobutyl)-2-(((S)-1-(pyridin-2-yl)ethyl)amino)thieno[3,2-d]pyrimidine-4-carboxamide] | 5.18 | 0.01 to 0.05 | 0.1 to 0.5 | > 0.5 | > 0.5 |  | 
C[C@H](O)CNC(=O)c1nc(N[C@@H](C)c2ccccn2)nc2ccsc12 [Example Z163, N—((S)-2-Hydroxypropyl)-2-(((S)-1-(pyridin-2-yl)ethyl)amino)thieno[3,2-d]pyrimidine-4-carboxamide] | 4.38 | 0.05 to 0.1 | 0.1 to 0.5 | > 0.5 | > 0.5 |  | 
CCOc1ccc(CNC(=O)c2nc(N[C@@H](C)c3ccccn3)nc3ccsc23)cn1 [Example Z170, (S)—N-((6-ethoxypyridin-3-yl)methyl)-2-((1-(pyridin-2-yl)ethyl)amino)thieno[3,2-d]pyrimidine-4-carboxamide] | 1.24 | 0.05 to 0.1 | 0.05 to 0.1 | 0.1 to 0.5 | 0.1 to 0.5 |  | 
CNc1cc2nc(N[C@@H](C)c3ccccn3)nc(C(=O)N3CCC3)c2s1 [Example Z173, (S)-Azetidin-1-yl(6-(methylamino)-2-((1-(pyridin-2-yl)ethyl)amino)thieno[3,2-d]pyrimidin-4-yl)methanone] | 45.26 | < 0.01 | 0.1 to 0.5 | > 0.5 | 0.05 to 0.1 |  | 
CNc1cc2nc(N[C@@H](C)c3ccccn3)nc(C(=O)N3CC[C@@H](O)C3)c2s1 [Example Z176, ((R)-3-Hydroxypyrrolidin-1-yl)(6-(methylamino)-2-(((S)-1-(pyridin-2-yl)ethyl)amino)thieno[3,2-d]pyrimidin-4-yl)methanone] | 27.44 | 0.01 to 0.05 | > 0.5 | > 0.5 | 0.05 to 0.1 |  | 
O=C(NC1CC(O)C1)c1nc(NCc2cncc(F)c2)nc2ccsc12 (stereo not shown) [Example Z184, 2-(((5-Fluoropyridin-3-yl)methyl)amino)-N-((1r,3r)-3-hydroxycyclobutyl)thieno[3,2-d]pyrimidine-4-carboxamide] | 25.53 | 0.01 to 0.05 | > 0.5 | > 0.5 | > 0.5 |  | 
CNc1cc2nc(N[C@@H](C)c3cccnc3)nc(C(=O)N3CC[C@H](F)C3)c2s1 [Example Z187, ((S)-3-Fluoropyrrolidin-1-yl)(6-(methylamino)-2-(((S)-1-(pyridin-3-yl)ethyl)amino)thieno[3,2-d]pyrimidin-4-yl)methanone] | 48.67 | < 0.01 | 0.1 to 0.5 | > 0.5 | 0.05 to 0.1 |  | 
C[C@H](Nc1nc(C(=O)NC2CC2)c2sccc2n1)c1ccccn1 [Example Z192, (S)—N-Cyclopropyl-2-((1-(pyridin-2-yl)ethyl)amino)thieno[3,2-d]pyrimidine-4-carboxamide] | 6.93 | < 0.01 | 0.01 to 0.05 | 0.05 to 0.1 | > 0.5 |  | 
